Experimental data from PMC5910229 (Neuron, 2018).

T1: RIM1 C2B (RIM1α C2B domain) (Rattus norvegicus, UniProt Q9JIR4)
T1 sequence (Q9JIR4 1447-1615): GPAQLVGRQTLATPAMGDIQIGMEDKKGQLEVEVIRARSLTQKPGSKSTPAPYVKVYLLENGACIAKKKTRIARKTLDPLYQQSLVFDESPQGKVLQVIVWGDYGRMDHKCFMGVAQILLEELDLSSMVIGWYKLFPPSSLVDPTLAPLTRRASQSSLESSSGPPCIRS


Experiments:
[1] = biological target: T1, RIM1 C2B (RIM1α C2B domain); test: 1H-15N HSQC NMR titration; assay type: binding
AUC = biological target: the molecule itself; test: AUC

Kd [1]	Molecule	Kd (AUC)
32 to 79 µM	CCCC(=O)OC[C@H](COP(=O)(O)O[C@@H]1[C@H](O)[C@H](O)[C@@H](OP(=O)(O)O)[C@H](OP(=O)(O)O)[C@H]1O)OC(=O)CCC [diC4-PIP2]	
	RIM1α C2B domain (GST tag cleaved) (domain or fragment, rat) GPAQLVGRQTLATPAMGDIQIGMEDKKGQLEVEVIRARSLTQKPGSKSTPAPYVKVYLLENGACIAKKKTRIARKTLDPLYQQSLVFDESPQGKVLQVIVWGDYGRMDHKCFMGVAQILLEELDLSSMVIGWYKLFPPSSLVDPTLAPLTRRASQSSLESSSGPPCIRS	~3000 µM
